Bridge positions count the residues as written; N and C are the ends. Square brackets hold non-standard residues; d marks the D form. Peptide text beside a SMILES is read from it. * marks the point of attachment. Octanoyl = CCCCCCCC(=O)*; Dab = NCC[C@H](N)C(=O)O; Abu = CC[C@H](N)C(=O)O
What was measured:
[1] = Drug level in Sprague-Dawley rat urine at 1 mg/kg, iv; type: ADME, organism-based; design: dose 1 mg/kg, route intravenous; conditions: Sprague-Dawley, urine, read-out: Drug uptake
Escherichia coli [2] = assay: Antimicrobial activity against Escherichia coli IH3080 assessed as zone of inhibition at 10 ug after 18 hrs by disk diffusion method in presence of 1 ug/ml rifampin; type: functional
Pseudomonas aeruginosa [3] = assay: Antimicrobial activity against Pseudomonas aeruginosa ATCC 27853 assessed as zone of inhibition at 10 ug after 18 hrs by disk diffusion method in presence of 1 ug/ml rifampin; type: functional
Acinetobacter baumannii [4] = assay: Antimicrobial activity against Acinetobacter baumannii ATCC 19606 assessed as zone of inhibition at 10 ug after 18 hrs by disk diffusion method in presence of 1 ug/ml rifampin; type: functional
Acinetobacter baumannii [5] = assay: Antimicrobial activity against Acinetobacter baumannii ATCC 19606 assessed as zone of inhibition at 10 ug after 18 hrs by disk diffusion method; type: functional
Pseudomonas aeruginosa [6] = assay: Antimicrobial activity against Pseudomonas aeruginosa ATCC 27853 assessed as zone of inhibition at 10 ug after 18 hrs by disk diffusion method; type: functional
Escherichia coli [7] = assay: Antimicrobial activity against Escherichia coli IH3080 assessed as zone of inhibition at 10 ug after 18 hrs by disk diffusion method; type: functional
Enterobacter cloacae [8] = assay: Ratio of MIC for Enterobacter cloacae ATCC 23355 to MIC for Enterobacter cloacae ATCC 23355 in presence of 4 ug/ml of NAB741; type: functional
Acinetobacter baumannii [9] = assay: Antimicrobial activity against Acinetobacter baumannii ATCC 19606 by Etest method in presence of 4 ug/ml NAB741; type: functional
Acinetobacter baumannii [10] = assay: Ratio of MIC for Acinetobacter baumannii ATCC 19606 to MIC for Acinetobacter baumannii ATCC 19606 in presence of 4 ug/ml of NAB741; type: functional
Escherichia coli [11] = assay: Antimicrobial activity against Escherichia coli ATCC 25922 by Etest method in presence of 4 ug/ml NAB741; type: functional
Escherichia coli [12] = assay: Antimicrobial activity against Escherichia coli IH3080 by Etest method in presence of 4 ug/ml NAB741; type: functional
Klebsiella pneumoniae [13] = assay: Antimicrobial activity against Klebsiella pneumoniae ATCC 13883 by Etest method in presence of 4 ug/ml NAB741; type: functional
Escherichia coli [14] = assay: Ratio of MIC for Escherichia coli ATCC 25922 to MIC for Escherichia coli ATCC 25922 in presence of 4 ug/ml of NAB741; type: functional
Klebsiella pneumoniae [15] = assay: Ratio of MIC for Klebsiella pneumoniae ATCC 13883 to MIC for Klebsiella pneumoniae ATCC 13883 in presence of 4 ug/ml of NAB741; type: functional
Escherichia coli [16] = assay: Ratio of MIC for Escherichia coli IH3080 to MIC for Escherichia coli IH3080 in presence of 4 ug/ml of NAB741; type: functional
Enterobacter cloacae [17] = assay: Antimicrobial activity against Enterobacter cloacae ATCC 23355 by Etest method in presence of 4 ug/ml NAB741; type: functional

dose excreted [1]	SMILES	inhibition zone (IZ) (Escherichia coli [2])	inhibition zone (IZ) (Pseudomonas aeruginosa [3])	inhibition zone (IZ) (Acinetobacter baumannii [4])	inhibition zone (IZ) (Acinetobacter baumannii [5])	inhibition zone (IZ) (Pseudomonas aeruginosa [6])	inhibition zone (IZ) (Escherichia coli [7])	Ratio (Enterobacter cloacae [8])	MIC (Acinetobacter baumannii [9])	Ratio (Acinetobacter baumannii [10])	MIC (Escherichia coli [11])	MIC (Escherichia coli [12])	MIC (Klebsiella pneumoniae [13])	Ratio (Escherichia coli [14])	Ratio (Klebsiella pneumoniae [15])	Ratio (Escherichia coli [16])	MIC (Enterobacter cloacae [17])
7.16%	CCCCCCCC(=O)N[C@H](C(=O)N[C@@H](CC)C(=O)N[C@H]1CCNC(=O)[C@H]([C@@H](C)O)NC(=O)[C@H](CCN)NC(=O)[C@H](CCN)NC(=O)[C@H](CC(C)C)NC(=O)[C@@H](Cc2ccccc2)NC(=O)[C@H](CCN)NC1=O)[C@@H](C)O (Octanoyl-T[Abu][Dab][Dab][dF]L[Dab][Dab]T; lactam 3-C) [listing 1 of 2 here]	–	–	–	–	–	–	–	–	–	–	–	–	–	–	–	–
–	CCCCCCCC(=O)N[C@H](C(=O)N[C@@H](CC)C(=O)N[C@H]1CCNC(=O)[C@H]([C@@H](C)O)NC(=O)[C@H](CCN)NC(=O)[C@H](CCN)NC(=O)[C@H](CC(C)C)NC(=O)[C@@H](Cc2ccccc2)NC(=O)[C@H](CCN)NC1=O)[C@@H](C)O (Octanoyl-T[Abu][Dab][Dab][dF]L[Dab][Dab]T; lactam 3-C) [listing 2 of 2 here]	206 mm2	55 mm2	252 mm2	3 mm2	2 mm2	32 mm2	–	–	–	–	–	–	–	–	–	–
–	CC(=O)N[C@H](C(=O)N[C@H](CC(N)=O)C(=O)N[C@H]1CCNC(=O)[C@H]([C@@H](C)O)NC(=O)[C@H](CCN)NC(=O)[C@H](CCN)NC(=O)[C@H](CC(C)C)NC(=O)[C@@H](Cc2ccccc2)NC(=O)[C@H](CCN)NC1=O)[C@@H](C)O	110 mm2	3 mm2	154 mm2	3 mm2	3 mm2	3 mm2	–	–	–	–	–	–	–	–	–	–
–	C/C(=C\C(=O)OCCCCCCCCC(=O)O)C[C@@H]1OC[C@H](C[C@@H]2O[C@H]2[C@@H](C)[C@H](C)O)[C@@H](O)[C@H]1O [MUPIROCIN]	–	–	–	–	–	–	50	512 µg/mL	<2	0.75 µg/mL	1 µg/mL	6 µg/mL	64	8	24	0.25 µg/mL
–	CC(=O)N[C@H](C(=O)NCCCC(=O)N[C@H]1CCNC(=O)[C@H]([C@@H](C)O)NC(=O)[C@H](CCN)NC(=O)[C@H](CCN)NC(=O)[C@H](CC(C)C)NC(=O)[C@@H](Cc2ccccc2)NC(=O)[C@H](CCN)NC1=O)[C@@H](C)O	8 mm2	3 mm2	9 mm2	3 mm2	3 mm2	3 mm2	–	–	–	–	–	–	–	–	–	–
–	CN[C@H](C(=O)N[C@H](CO)C(=O)N[C@H]1CCNC(=O)[C@H]([C@@H](C)O)NC(=O)[C@H](CCN)NC(=O)[C@H](CCN)NC(=O)[C@H](CC(C)C)NC(=O)[C@@H](Cc2ccccc2)NC(=O)[C@H](CCN)NC1=O)[C@@H](C)O	130 mm2	38 mm2	79 mm2	3 mm2	7 mm2	3 mm2	–	–	–	–	–	–	–	–	–	–
–	CC(=O)O[C@H]1C[C@@]2(C)[C@@H](C[C@@H](O)[C@H]3[C@@]4(C)CC[C@@H](O)[C@@H](C)[C@@H]4CC[C@@]32C)/C1=C(\CCC=C(C)C)C(=O)O [FUSIDIC ACID]	–	–	–	–	–	–	>130	6 µg/mL	>43	1.5 µg/mL	2 µg/mL	48 µg/mL	>170	>5	>130	2 µg/mL

Reference: ChEMBL document CHEMBL1629695, “A novel polymyxin derivative that lacks the fatty acid tail and carries only three positive charges has strong synergism with agents excluded by the intact outer membrane” (Antimicrob Agents Chemother, 2010)
